Data taken from patent US5618726A, “Biodegradable azo dyes” (priority 1994, dated 1997).

Legend:
S. badius 252 = assay type: cell-based; conditions: streptomyces badius 252 culture, 336 h
Description: (§1) Microbiol., 1984, 130:2905-2913.
(§2) Replicate sterile controls also were run in each experiment.

S. diastaticus A12 = assay type: cell-based; conditions: streptomyces diastaticus a12 culture, 336 h
Description: as §1, §2

S. diastaticus A13 = assay type: cell-based; conditions: streptomyces diastaticus a13 culture, 336 h
Description: as §1, §2

S. rochei A10 = assay type: cell-based; conditions: streptomyces rochei a10 culture, 336 h
Description: as §1, §2

S. rochei A14 = assay type: cell-based; conditions: streptomyces rochei a14 culture, 336 h
Description: as §1, §2

S. chromofuscus A11 = conditions: streptomyces chromofuscus a11 culture, 336 h
Experimental: as §1, §2
The Streptomyces were grown on the same media and under the same conditions as previously described. […] Thus, the spectrophotometric assays for substrates 1-12 were carried out at their specific isobastic points. Degradation was calculated as percent of substrates removed from culture broth, considering the evaporation factor (around 10%).

[1] = test system: Phanerochaete chrysosporium; experiment: Substrate removal / decolorization by P. chrysosporium culture; assay type: cell-based; conditions: for % Decolorization, P. chrysosporium: 14 days
Experimental: Environ. Microbiol., 1981, 42:290-296), with the addition of 75 mg adenine (6-aminopurine) and 27 mg L-phenylalanine-per-liter. This addition accelerated the growth of the fungus without inhibiting ligninase activity. […] […] Cultures were incubated at 37° C. for 7 to 15 days with shaking (250 rpm). Solid agar media were also employed.

S. chromofuscus A20 = conditions: streptomyces chromofuscus a20 culture, 336 h
Experimental: (§5) Each Streptomyces species was grown in a cotton-plugged 250 ml flask containing 25 ml of the following medium: 0.2M Tris buffer (pH 7.6), 100 ml; vitamin-free Casamino acids (Difco), 1.0 g; thiamine, 100 μg; biotin, 100 μg; D-glucose, 2 g; deionized water, 900 ml.
The dyes were filter-sterilized and added at 0.005% (w/v) to the autoclaved basal medium. Alternatively, azo dye stock solutions were sterilized by filtration (pore size 0.2 μm) and added to autoclaved basal medium at concentrations of 50 or 100 ppm. Three replicates of every culture were incubated, and each strain was grown in media supplemented individually with every substrate. Replicate sterile controls also were run in each experiment. Cultures were incubated at 37° C. for 14 days with shaking (200-250 rpm). Three replicates for each strain growth were incubated in only the basal medium as well.
A one ml sample of culture medium was centrifuged and then diluted 2.5-5.0 fold (actinomycete culture) or 5- to 10-fold (fungal culture) with distilled water. Alternatively, 1.0 ml of fungal supernatant was centrifuged and diluted 5-fold with 10 mM sodium 2,2-dimethylsuccinate buffer (DMS) of pH 4.5. Azo dye substrate present was then measured spectrophotometrically with a Hewlett-Packard 8452 diode array spectrophotometer operated by a PC Vectra computer equipped with HP's MS™-DOS/UV-VIS software. To be certain that changes in substrate spectra were not due to pH variations, the effects of pH on the visible absorption of each compound were also assayed within physiological pH range in the culture media. […] Thus, the spectrophotometric assays for the dyes were typically carried out at their isobestic points. For instance, the spectrophotometric assays were carried out at 450 nm for azo dye 1 and 400 nm for azo dye 2. […] The compounds were quantified by first developing standard curves of absorbance versus concentrations (0-50 μg) and then comparing measured absorbance values to the standard curves.

S. viridosporus T7A = conditions: streptomyces viridosporus t7a culture, 336 h
Experimental: as §5
The dyes were filter-sterilized and added at 0.005% (w/v) to the autoclaved basal medium. Alternatively, azo dye stock solutions were sterilized by filtration (pore size 0.2 μm) and added to autoclaved basal medium at concentrations of 50 or 100 ppm. Three replicates of every culture were incubated, and each strain was grown in media supplemented individually with every substrate. Replicate sterile controls also were run in each experiment. […] Three replicates for each strain growth were incubated in only the basal medium as well.
A one ml sample of culture medium was centrifuged and then diluted 2.5-5.0 fold (actinomycete culture) or 5- to 10-fold (fungal culture) with distilled water. Alternatively, 1.0 ml of fungal supernatant was centrifuged and diluted 5-fold with 10 mM sodium 2,2-dimethylsuccinate buffer (DMS) of pH 4.5. […] To be certain that changes in substrate spectra were not due to pH variations, the effects of pH on the visible absorption of each compound were also assayed within physiological pH range in the culture media. While the spectra of sulfanilic acid (Max abs at 250 nm), vanillic acid (Max abs at 252 nm and 286 nm) and acid yellow 9 (Max abs at 336 nm) were unaffected by pH over the tested pH range, the spectra of several novel azo dyes were changed as evidenced by shifts of their Absmax. Thus, the spectrophotometric assays for the dyes were typically carried out at their isobestic points. […] Spectrophotometric measurements were carried out at the absorbance maxima for azo dyes 16, 17, 18, 19, 31, and 32 (See Table 1 below). […] The compounds were quantified by first developing standard curves of absorbance versus concentrations (0-50 μg) and then comparing measured absorbance values to the standard curves.

ligninase = experiment: Oxidation of dyes by P. chrysosporium ligninase (crude preparation); assay type: biochemical, Phanerochaete chrysosporium; conditions: for Oxidation / decolorization by ligninase: pH3, 0.2 mM hydrogen peroxide, 15-minute incubation
Method in brief: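 Crude P. chrysosporium ligninase oxidation of dyes, assayed by a previously reported method; conditions as for acid yellow 9, readings every 30 s for up to 15 minutes.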

P. chrysosporium = experiment: Mineralization of 14C-labeled dyes by shaken cultures; assay type: cell-based, Phanerochaete chrysosporium; conditions: for Percentage of radioactivity recovered in CO2, P. chrysosporium / Percentage of radioactivity recovered in biomass (cells), P. chrysosporium / Percentage of radioactivity removed from the medium, P. chrysosporium: 21 days' growth, 200 mg/liter
Experimental: (§3) Agitated cultures containing 100,000 to 150,000 dpm of azo dye at a concentration of 200 mg/liter for P. chrysosporium and 50 mg/liter for S. chromofuscus were incubated at 37° C. for 20 days with shaking at 200 rpm. For each mineralization experiment six replicates-per-culture were run for P. chrysosporium and three replicates-per-culture for S. chromofuscus. Each culture flask contained a CO2 trap consisting of a small glass cup connected to the bottom of the rubber stopper. The cup contained 1 ml of 1N NaOH. Samples were taken every 2 days, and after each sampling cultures were flushed with 100% oxygen for 30 s. At the sampling time, the stopper was removed and the NaOH containing trapped CO2 was transferred to a 20-ml scintillation vial, and the cup was then rinsed twice with 1 ml of water. Two ml of rinse water were also transferred to the vial. Finally, 10 ml of Ecolite scintillation cocktail (ICN Biochemicals Inc., Irvine, Calif.) were added to each vial. Vials, after mixing, were stored in the dark for 24 h. The cpm of trapped radioactivity was then determined in a Packard Tri-Carb liquid scintillation analyzer, Model 1500, using the ^14 C quench standards and SIS numbers.
Either a charcoal-containing polyurethane sponge (Bio-Rad Laboratories, Richmond, Calif.) or 2-methoxyethanol was used to trap volatile organic compounds released during mineralization experiments. The sponge (1 cm^3) replaced the 1N NaOH solution in the small glass cap attached to the rubber stopper; other conditions were as before for the ^14 CO2 experiments. For scintillation counting, the charcoal sponges were dissolved in 1 ml of hyamine hydroxide contained in scintillation vials (1M solution in methanol; NEN Research Products, Boston, Mass.) held at 55° C. for 2 h. Ten ml of Ecolite scintillation cocktail were then added and the cpm was measured.
In the second procedure, cultures with CO2 traps were flushed with oxygen for 10 min, and the organic volatiles present were trapped in 10 ml of 2-methoxyethanol mixed with 10 ml Ecolite.
(§4) The removal of radioactivity from the media was determined by measuring the amount of ^14 C label in 0.1 ml of the medium at time 0 and 21 days for each culture. Uninoculated cultures were used as evaporation controls. […] At the end of each mineralization experiment, culture broths were acidified with 5 ml of 1M H3 PO4, fresh 1N NaOH was added to the trap, and the cultures were shaken overnight. No additional releases of ^14 CO2 were observed. The radioactivity assimilated by the cells was measured by solubilizing biomass harvested from each 21-day-old culture in an equal volume of hyamine hydroxide solution. Before solubilization, cells were washed three times with 50 ml of distilled water to remove adsorbed dyes. Ecolite 10 ml was added to the mixture, which was vortexed vigorously. To increase counting efficiency, the solution of biomass-hyamine-scintillation cocktail was further diluted 10 to 20 times with fresh Ecolite before counting.

[2] = test system: Streptomyces chromofuscus; experiment: as above; assay type: cell-based; conditions: for Percentage of radioactivity recovered in CO2, Streptomyces chromofuscus / Percentage of radioactivity recovered in biomass (cells), Streptomyces chromofuscus / Percentage of radioactivity removed from the medium, Streptomyces chromofuscus: 21 days' growth, 50 mg/liter
Experimental: as §3, §4

Mn(II)-peroxidase [3] = experiment: Oxidation of dyes by P. chrysosporium Mn(II)-peroxidase; assay type: biochemical, Phanerochaete chrysosporium; conditions: for Oxidation by manganese peroxidase: 15-minute incubation period
Streptomyces spp. = experiment: Decolorization of naphthol azo dyes by Streptomyces spp.; assay type: cell-based
Description: as §1, §2

[4] = target: T1, horseradish peroxidase type II (Armoracia rusticana, UniProt P00433); experiment: Oxidation of azo dyes by horseradish peroxidase preparation; assay type: biochemical; conditions: pH 8, 37° C., H2O2
T1 sequence (P00433 31-338): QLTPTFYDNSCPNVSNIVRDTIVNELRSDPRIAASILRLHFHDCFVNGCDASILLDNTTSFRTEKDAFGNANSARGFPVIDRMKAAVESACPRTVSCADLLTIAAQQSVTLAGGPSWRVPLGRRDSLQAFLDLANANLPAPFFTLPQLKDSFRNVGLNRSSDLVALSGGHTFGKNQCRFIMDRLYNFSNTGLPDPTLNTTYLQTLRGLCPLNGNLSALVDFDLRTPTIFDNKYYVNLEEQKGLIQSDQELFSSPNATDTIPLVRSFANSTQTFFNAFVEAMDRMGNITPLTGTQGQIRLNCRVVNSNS
Experimental: The reaction was started with the addition of 100 μl of 50 mM H2 O2 and was followed for 1 min at 37° C. Controls were run with no addition of H2 O2 or with the addition of the hemeperoxidase inhibitor KCN (final concentration 25 μM).

[5] = test system: S. chromofuscus A11 extracellular peroxidase; experiment: Oxidation of azo dyes by S. chromofuscus A11 crude enzyme preparation; assay type: biochemical, Streptomyces chromofuscus A11; conditions: pH 8, 37° C., H2O2
Method in brief: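 Enzyme from 48 h S. chromofuscus A11 culture supernatant, concentrated, ammonium sulfate-precipitated, dialyzed in 20 mM HEPES pH 8; yellow Sephadex G-25 fraction used. Reaction started with 100 μl 50 mM H2O2, followed 1 min at 37° C; controls without H2O2 or with 25 μM KCN.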

Mn(II)-peroxidase [6] = experiment: Oxidation of dyes by P. chrysosporium Mn(II)-peroxidase; assay type: biochemical, Phanerochaete chrysosporium; conditions: crude enzyme, conditions specific for Mn(II)-peroxidase
soil microflora = experiment: Degradation of azo dyes by soil microflora; assay type: cell-based; conditions: water from a soil sample
Experimental: The degradation of azo dyes by soil microflora in general was evaluated by forming a mixture of azo dyes 33 and 34 with water from a soil sample. The soil sample contained soil microflora that had not adapted to using azo dyes as substrates. A carbon source was added to the mixture and a continuous air flow through the mixture was maintained. The ^14 CO2 released by the mixture was trapped using a 1N NaOH.

[7] = p. chrysosporium culture, 168 h

Compound: COc1cc(N=Nc2ccc(N=Nc3ccc(S(=O)(=O)O)cc3)cc2S(=O)(=O)O)ccc1O [Azo dye 1, 4-(3-methoxy-4-hydroxyphenylazo)-azobenzene-3,4'-disulfonic acid]
- Percent substrate removed, S. badius 252 (S. badius 252): 9%
- Percent substrate removed, S. diastaticus A12 (S. diastaticus A12): 27%
- Percent substrate removed, S. diastaticus A13 (S. diastaticus A13): 15%
- Percent substrate removed, S. rochei A10 (S. rochei A10): 51%
- Percent substrate removed, S. rochei A14 (S. rochei A14): 43%
- Percent substrate removed, S. chromofuscus A11 (S. chromofuscus A11): 56%
- Percent substrate removed, P. chrysosporium ([1]; growth period 7 days): 93%
- Percent substrate removed, S. chromofuscus A20 (S. chromofuscus A20): 1%
- Percent substrate removed, S. viridosporus T7A (S. viridosporus T7A): 1%

Compound: COc1cc(N=Nc2ccc(S(=O)(=O)O)cc2)ccc1O [Azo dye 2, 3-methoxy-4-hydroxy-azobenzene-4'-sulfonic acid]
- Percent substrate removed, S. badius 252 (S. badius 252): 18%
- Percent substrate removed, S. diastaticus A12 (S. diastaticus A12): 30%
- Percent substrate removed, S. diastaticus A13 (S. diastaticus A13): 21%
- Percent substrate removed, S. rochei A10 (S. rochei A10): 74%
- Percent substrate removed, S. rochei A14 (S. rochei A14): 72%
- Percent substrate removed, S. chromofuscus A11 (S. chromofuscus A11): 89%
- Percent substrate removed, P. chrysosporium ([1]; growth period 7 days): 94%
- Percent substrate removed, S. chromofuscus A20 (S. chromofuscus A20): 11%
- Percent substrate removed, S. viridosporus T7A (S. viridosporus T7A): 9%

Compound: Nc1ccc(N=Nc2ccc(S(=O)(=O)O)cc2)cc1S(=O)(=O)O [Azo dye 18, 4-amino-1,1'-azobenzene-3,4'-disulfonic acid]
- Amount of dye decolorized by ligninase (ligninase; out of 10 micrograms, 15 minutes, pH3, 0.6 units of enzyme): about 3 micrograms
- Percent substrate removed, P. chrysosporium [1, 7]: 79%
- Percentage of radioactivity recovered in CO2, P. chrysosporium (P. chrysosporium): 26.9%
- Percentage of radioactivity recovered in biomass (cells), P. chrysosporium (P. chrysosporium): 2.3%
- Percentage of radioactivity removed from the medium, P. chrysosporium (P. chrysosporium): 33.0%
- Percentage of radioactivity recovered in CO2, Streptomyces chromofuscus [2]: 0.0%
- Percentage of radioactivity recovered in biomass (cells), Streptomyces chromofuscus [2]: 0.0%
- Percentage of radioactivity removed from the medium, Streptomyces chromofuscus [2]: 0.0%
- Oxidation by manganese peroxidase (Mn(II)-peroxidase [3]): not detected

Compound: O=S(=O)(O)c1ccc2c(N=Nc3ccccc3)c(O)ccc2c1 [Azo dye 19, 1-phenylazo-2-hydroxynaphthalene-6-sulfonic acid]
- Decolorization by Streptomyces spp. (Streptomyces spp.): not

Compound: O=S(=O)(O)c1ccc(N=Nc2c(O)ccc3ccccc23)cc1 [Azo dye 31, 4-(2-hydroxy-1-naphthylazo)benzenesulfonic acid]
- Decolorization by Streptomyces spp. (Streptomyces spp.): not

Compound: Nc1ccc(S(=O)(=O)O)cc1 [Sulfanilic acid, 4-Amino-[U-^14 C]benzenesulfonic acid]
- Oxidation / decolorization by ligninase (ligninase): transformed slowly
- Percent substrate removed, P. chrysosporium [1, 7]: 68%
- Percentage of radioactivity recovered in biomass (cells), P. chrysosporium (P. chrysosporium): 1.3%
- Percentage of radioactivity removed from the medium, P. chrysosporium (P. chrysosporium): 25.0%
- Percentage of radioactivity recovered in CO2, P. chrysosporium (P. chrysosporium; listed as Sulfanilic Acid): 17.2%
- Percentage of radioactivity recovered in CO2, P. chrysosporium (P. chrysosporium; listed as sulfanilic acid): 17%
- Start of mineralization in the fungal culture (P. chrysosporium; P. chrysosporium): tenth day
- Percentage of radioactivity recovered in CO2, Streptomyces chromofuscus [2]: 0.0%
- Percentage of radioactivity recovered in biomass (cells), Streptomyces chromofuscus [2]: 0.0%
- Percentage of radioactivity removed from the medium, Streptomyces chromofuscus [2]: 0.0%
- Oxidation by manganese peroxidase (Mn(II)-peroxidase [3]): not detected

Compound: COc1cc(N=Nc2ccc(N=Nc3ccc(S(=O)(=O)O)cc3)cc2S(=O)(=O)O)ccc1O [compound 1]
- Oxidation rate of azo dyes, Horseradish peroxidase [4]: 8.24 μmoles per minute per ml
- Oxidation rate of azo dyes, S. chromofuscus peroxidase [5]: 1.78 μmoles per minute per ml
- Oxidation rate of azo dyes, P. chrysosporium Mn-peroxidase (Mn(II)-peroxidase [6]): 3.06 μmoles per minute per ml
- Oxidation rate of azo dyes, P. chrysosporium Ligninase (ligninase; crude enzyme, conditions specific for ligninase): 0.44 μmoles per minute per ml
- Oxidation / decolorization by ligninase (ligninase): not detected
- Degradation by Phanerochaete fungus ([1]; growth period of seven days, starting dye 150-200 ppm (FIG. 3), 10080 min): 90%
- % Decolorization, P. chrysosporium ([1]; initial concn 150 ppm): 99%
- % Decolorization, P. chrysosporium ([1]; initial concn 300 ppm): 62%
- Degradation by manganese peroxidase (HPLC, words) (Mn(II)-peroxidase [3]; one hour incubation): almost completely degraded

Compound: COc1cc(N=N[14c]2[14cH][14cH][14c](S(=O)(=O)O)[14cH][14cH]2)ccc1O [compound 34]
- Percentage of radioactivity recovered in CO2, P. chrysosporium (P. chrysosporium): 25.7%
- Percentage of radioactivity recovered in biomass (cells), P. chrysosporium (P. chrysosporium): 5.2%
- Percentage of radioactivity removed from the medium, P. chrysosporium (P. chrysosporium): 31.7%
- Mineralization rate relative to dyes 33 and 35 (P. chrysosporium; first 10 days of incubation): twice as fast
- Mineralization by the streptomycetes ([2]; 21-day incubation): mineralized
- Radioactivity accounted for by dye absorbed by the cells ([2]; 21 days growth of S. chromofuscus): 9%
- Percentage of radioactivity recovered in CO2, Streptomyces chromofuscus [2]: ~4%
- Percentage of radioactivity recovered in biomass (cells), Streptomyces chromofuscus [2]: 4.6%
- Dye mineralized by soil microflora (soil microflora; 14CO2 trapped): 14%
- Dye transformed by soil microflora (soil microflora; carbon source, air flow): 46%
